Reference: patent US6737383B1, “Herbicidal oxadiazolidines” (priority 1999, dated 2004)

Key:
sourgrass = assay: Test D sourgrass; assay type: in vivo, Trichachne insularis; details: Preemergence, 0 to 100 scale
How it was run: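 Seeds were sown in greenhouse pots, one species per pot or compartment. Compounds were in a non-phytotoxic solvent mixture with surfactant; preemergence applications went on the sandy loam surface within one day of planting. Injury was rated visually after 14 to 21 days, 0 (none) to 100 (complete control).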

annual bluegrass = assay: Test E annual bluegrass; assay type: in vivo, Poa annua; details: Postemergence
Protocol: (§1) Compounds evaluated in this test were formulated in a non-phytotoxic solvent mixture which included a surfactant and applied to plants that were in the 1- to 4-leaf stage (postemergence application). A mixture of sandy loam soil and greenhouse potting mix in a 60:40 ratio was used for the postemergence test.
(§2) Plantings of these crops and weed species were adjusted to produce plants of appropriate size for the postemergence test. All plant species were grown using normal greenhouse practices. Crop and weed species include annual bluegrass (Poa annua), blackgrass (Alopecurus myosuroides), black nightshade (Solanum nigra), chickweed (Stellaria media), common poppy (Papaver rhoeas), deadnettle (Lamium amplexicaule), downy brome (Bromus tectorum), field violet (Viola arvensis), galium (Galium aparine), green foxtail (Setaria viridis), Italian ryegrass (Lolium multiflorum), jointed goatgrass (Aegilops cylindrica), kochia (Kochia scoparia), lambsquarters (Chenopodium album), littleseed canarygrass (Phalaris minor), rape (Brassica napus), redroot pigweed (Amaranthus retroflexus), Russian thistle (Salsola kali), scentless chamomile (Matricaria inodora), spring barley (Hordeum vulgare), sugar beet (Beta vulgaris), sunflower (Helianthus annuus), ivyleaf speedwell (Veronica hederaefolia), spring wheat (Triticum aestivum), winter wheat (Triticum aestivum), wild buckwheat (Polygonum convolvulus), wild mustard (Sinapis arvensis), wild oat (Avena fatua), windgrass (Apera spica-venti) and winter barley (Hordeum vulgare).
(§3) Treated plants and untreated controls were maintained in a greenhouse for approximately 21 to 28 days, after which all treated plants were compared to untreated controls and visually evaluated. […] A dash response (-) means no test result.

deadnettle = assay: Test E deadnettle; assay type: in vivo, Lamium amplexicaule; details: Postemergence
Protocol: as §1, §2, §3

field violet = assay: Test E field violet; assay type: in vivo, Viola arvensis; details: Postemergence
How it was run: (§4)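 Postemergence: 60:40 sandy loam/greenhouse potting mix, 1- to 4-leaf stage. Formulation: solvent plus surfactant. Assessment: visual comparison with untreated controls at ~21–28 days.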

littleseed canarygrass [1] = assay: Test E littleseed canarygrass; assay type: in vivo, Phalaris minor; details: Postemergence
How it was run: as §4

rape = assay: Test E rape; assay type: in vivo, Brassica napus; details: Postemergence
Protocol: (§5) […] A mixture of sandy loam soil and greenhouse potting mix in a 60:40 ratio was used for the postemergence test.
as §2, §3

redroot pigweed = assay: Test E redroot pigweed; assay type: in vivo, Amaranthus retroflexus; details: Postemergence
How it was run: as §4

spring barley = assay: Test E spring barley; assay type: in vivo, Hordeum vulgare; details: Postemergence
Protocol: as §1, §2, §3

wild buckwheat = assay: Test E wild buckwheat; assay type: in vivo, Polygonum convolvulus; details: Postemergence
Protocol: as §1, §2, §3

wild mustard [2] = assay: Test E wild mustard; assay type: in vivo, Sinapis arvensis; details: Postemergence
Protocol: as §5, §2, §3

black nightshade = assay: Test E black nightshade; assay type: in vivo, Solanum nigra; details: Preemergence
littleseed canarygrass [3] = assay: Test E littleseed canarygrass; assay type: in vivo, Phalaris minor; details: Preemergence
wild mustard [4] = assay: Test E wild mustard; assay type: in vivo, Sinapis arvensis; details: Preemergence
scentless chamomile = assay: Test E scentless chamomile; assay type: in vivo, Matricaria inodora; details: Preemergence
[5] = Rate 250 g/ha, 0 to 100 scale (0 no effect, 100 complete control)
[6] = Rate 62 g/ha, 0 to 100 scale, 0 no effect, 100 complete control
[7] = Rate 125 g/ha, 0 to 100 scale (0 no effect, 100 complete control)

## Cc1ccccc1-n1c(=O)on(C(=O)N(c2ccc(F)cc2)C(C)C)c1=O [Compound 4]
sourgrass; Rate 16 g/ha, 0 no injury, 100 complete control
  Plant response rating, Sourgrass: 50
sourgrass; Rate 32 g/ha, 0 no injury, 100 complete control
  Plant response rating, Sourgrass: 65
sourgrass; Rate 64 g/ha, 0 no injury, 100 complete control
  Sourgrass plant response rating: 90
sourgrass; Rate 125 g/ha, 0 no injury, 100 complete control
  Sourgrass plant response rating: 100
sourgrass; Rate 250 g/ha
  Plant response rating, Sourgrass: 100
sourgrass; Rate 500 g/ha
  Plant response rating, Sourgrass: 100

## C=CCn1c(=O)on(C(=O)N(c2ccccc2)C(C)C)c1=O [Compound 93]
Annual bluegrass; Rate 62 g/ha, 0 to 100 scale
  Plant response rating, Annual bluegras: 20
Annual bluegrass; Rate 125 g/ha, 0 to 100 scale
  Plant response rating, Annual bluegras: 20
Annual bluegrass; [5]
  Plant response rating, Annual bluegras: 50
deadnettle; Rate 62 g/ha, 0 to 100 scale
  Plant response rating, Deadnettle: 0
deadnettle; Rate 125 g/ha, 0 to 100 scale
  Plant response rating, Deadnettle: 0
deadnettle; [5]
  Plant response rating, Deadnettle: 0
Field violet; Rate 62 g/ha, 0 to 100 scale
  Plant response rating, Field violet: 0
Field violet; Rate 125 g/ha, 0 to 100 scale
  Plant response rating, Field violet: 0
Field violet; [5]
  Plant response rating, Field violet: 0
Littleseed canarygrass [1]; Rate 62 g/ha, 0 to 100 scale
  Plant response rating, LS canarygrass: 0
Littleseed canarygrass [1]; Rate 125 g/ha, 0 to 100 scale
  Plant response rating, LS canarygrass: 0
Littleseed canarygrass [1]; [5]
  Plant response rating, LS canarygrass: 0
rape; Rate 62 g/ha, 0 to 100 scale
  Plant response rating, Rape: 0
rape; Rate 125 g/ha, 0 to 100 scale
  Plant response rating, Rape: 0
rape; [5]
  Plant response rating, Rape: 0
Redroot pigweed; Rate 62 g/ha, 0 to 100 scale
  Plant response rating, Redroot pigweed: 0
Redroot pigweed; Rate 125 g/ha, 0 to 100 scale
  Plant response rating, Redroot pigweed: 0
Redroot pigweed; [5]
  Plant response rating, Redroot pigweed: 0
Spring barley; Rate 62 g/ha, 0 to 100 scale
  Plant response rating, Spring Barley: 0
Spring barley; Rate 125 g/ha, 0 to 100 scale
  Plant response rating, Spring Barley: 0
Spring barley; [5]
  Plant response rating, Spring Barley: 0
Wild buckwheat; Rate 62 g/ha, 0 to 100 scale
  Plant response rating, Wild buckwheat: 0
Wild buckwheat; Rate 125 g/ha, 0 to 100 scale
  Plant response rating, Wild buckwheat: 0
Wild buckwheat; [5]
  Plant response rating, Wild buckwheat: 0
Wild mustard [2]; Rate 62 g/ha, 0 to 100 scale
  Plant response rating, Wild mustard: 0
Wild mustard [2]; Rate 125 g/ha, 0 to 100 scale
  Plant response rating, Wild mustard: 0
Wild mustard [2]; [5]
  Plant response rating, Wild mustard: 10
Black nightshade; [6]
  Plant response rating, Blk nightshade: 60
Black nightshade; [7]
  Plant response rating, Blk nightshade: 65
Black nightshade; Rate 250 g/ha, 0 to 100 scale
  Plant response rating, Blk nightshade: 80
Littleseed canarygrass [3]; [6]
  Plant response rating, LS canarygrass: 40
Littleseed canarygrass [3]; [7]
  Plant response rating, LS canarygrass: 80
Littleseed canarygrass [3]; Rate 250 g/ha, 0 to 100 scale
  Plant response rating, LS canarygrass: 60
Wild mustard [4]; [6]
  Plant response rating, Wild mustard: 30
Wild mustard [4]; [7]
  Plant response rating, Wild mustard: 65
Wild mustard [4]; Rate 250 g/ha, 0 to 100 scale
  Plant response rating, Wild mustard: 80

## CCn1c(=O)on(C(=O)N(c2ccc(Cl)cc2)C(C)C)c1=O [Compound 108]
Annual bluegrass; Rate 62 g/ha, 0 to 100 scale
  Plant response rating, Annual bluegras: 0
Annual bluegrass; Rate 125 g/ha, 0 to 100 scale
  Plant response rating, Annual bluegras: 15
Annual bluegrass; [5]
  Plant response rating, Annual bluegras: 50
deadnettle; Rate 62 g/ha, 0 to 100 scale
  Plant response rating, Deadnettle: 10
deadnettle; Rate 125 g/ha, 0 to 100 scale
  Plant response rating, Deadnettle: 20
deadnettle; [5]
  Plant response rating, Deadnettle: 30
Field violet; Rate 62 g/ha, 0 to 100 scale
  Plant response rating, Field violet: 0
Field violet; Rate 125 g/ha, 0 to 100 scale
  Plant response rating, Field violet: 0
Field violet; [5]
  Plant response rating, Field violet: 20
Littleseed canarygrass [1]; Rate 62 g/ha, 0 to 100 scale
  Plant response rating, LS canarygrass: 0
Littleseed canarygrass [1]; Rate 125 g/ha, 0 to 100 scale
  Plant response rating, LS canarygrass: 20
Littleseed canarygrass [1]; [5]
  Plant response rating, LS canarygrass: 70
rape; Rate 62 g/ha, 0 to 100 scale
  Plant response rating, Rape: 60
rape; Rate 125 g/ha, 0 to 100 scale
  Plant response rating, Rape: 40
rape; [5]
  Plant response rating, Rape: 50
Redroot pigweed; Rate 62 g/ha, 0 to 100 scale
  Plant response rating, Redroot pigweed: 5
Redroot pigweed; Rate 125 g/ha, 0 to 100 scale
  Plant response rating, Redroot pigweed: 20
Redroot pigweed; [5]
  Plant response rating, Redroot pigweed: 30
Spring barley; Rate 62 g/ha, 0 to 100 scale
  Plant response rating, Spring Barley: 10
Spring barley; Rate 125 g/ha, 0 to 100 scale
  Plant response rating, Spring Barley: 20
Spring barley; [5]
  Plant response rating, Spring Barley: 25
Wild buckwheat; Rate 62 g/ha, 0 to 100 scale
  Plant response rating, Wild buckwheat: 0
Wild buckwheat; Rate 125 g/ha, 0 to 100 scale
  Plant response rating, Wild buckwheat: 20
Wild buckwheat; [5]
  Plant response rating, Wild buckwheat: 10
Wild mustard [2]; Rate 62 g/ha, 0 to 100 scale
  Plant response rating, Wild mustard: 5
Wild mustard [2]; Rate 125 g/ha, 0 to 100 scale
  Plant response rating, Wild mustard: 10
Wild mustard [2]; [5]
  Plant response rating, Wild mustard: 80
Black nightshade; [6]
  Plant response rating, Blk nightshade: 50
Black nightshade; [7]
  Plant response rating, Blk nightshade: 85
Black nightshade; Rate 250 g/ha, 0 to 100 scale
  Plant response rating, Blk nightshade: 90
Littleseed canarygrass [3]; [6]
  Plant response rating, LS canarygrass: 60
Littleseed canarygrass [3]; [7]
  Plant response rating, LS canarygrass: 50
Littleseed canarygrass [3]; Rate 250 g/ha, 0 to 100 scale
  Plant response rating, LS canarygrass: 70
Scentless chamomile; [6]
  Plant response rating, Scentless chamo: 50
Scentless chamomile; [7]
  Plant response rating, Scentless chamo: 60
Scentless chamomile; Rate 250 g/ha, 0 to 100 scale
  Plant response rating, Scentless chamo: 80
Wild mustard [4]; [6]
  Plant response rating, Wild mustard: 50
Wild mustard [4]; [7]
  Plant response rating, Wild mustard: 90
Wild mustard [4]; Rate 250 g/ha, 0 to 100 scale
  Plant response rating, Wild mustard: 65
